This is an account of results in patent US11370775B2, “Substituted benzimidazole derivatives as D-amino acid oxidase (DAAO) inhibitors” (NATIONAL TAIWAN UNIVERSITY, priority 2016, dated 2022).

One assay concerns the target T1, porcine kidney DAO (Sus scrofa, UniProt P00371).
T1 construct: purchased Sigma-Aldrich; host or cells: porcine kidney
The experiment in a line: pkDAO enzymatic assay (porcine kidney DAO IC50 assay). In kind it is biochemical. The note with it: D-alanine substrate, pH 8.3, 37° C., without FAD. How it is done:
The DAAO enzymatic activity assay was modified according to the report of Oguri et al (Oguri, S., Screening of d-amino acid oxidase inhibitor by a new multi-assay method. Food chemistry 2007, 100 (2), 616). The DAAO activity was measured by using substrate D-alanine reaction produced hydrogen peroxide (H2O2) to further react with 3-(4-hydroxyphenyl) propionic acid (HPPA). The HPPA were oxidized by H2O2 and peroxidase to become the fluorogenic dimer which was measured to represent the activity of DAAO.
For porcine kidney DAO IC50 assay, the DAO substrate was prepared in 50 mM D-alanine (dissolved in 0.2 M Tris-HCl buffer, pH 8.3). A 100 μl of D-alanine solution was mixed with 4 μl (in 100% dimethyl sulfoxide, DMSO) of different concentrations of candidate compounds shown in tables below ranging from 48.83 μM, 97.66 μM, 195.31 μM, 390.63 μM, 781.25 μM, 1.56 mM, 3.13 mM, 6.25 mM, 12.50 mM, 25.00 mM, and 50.00 mM, with a final DMSO concentration of 0.167% in each reaction concentration. 10 μl of D-alanine and candidate compound mixture was incubated with 220 μl of Reaction Master Mix in black 96 well plate at 37° C. for 5 minutes. The Reaction Master Mix contained 110 μl of 5 U/mL porcine kidney DAO (Sigma-Aldrich, USA) solution (dissolved with 0.2 M Tris-HCl buffer, pH 8.3), 1.1 mL of 15 U/mL peroxidase solution (dissolved with 0.2 M Tris-HCl buffer, pH 8.3), 1.1 mL of 20 mM HPPA solution (dissolved with 0.2 M Tris-HCl buffer, pH 8.3), and 22 ml of 2 M Tris-HCl buffer (pH 8.3) for 110 reaction assays.
Fluorescence intensity (Fs) was measured at 405 nm by irradiation excitation at 320 nm. The higher the DAO enzymatic activity was, the higher the fluorescence intensity. The fluorometric inhibition indicator (Fi) was obtained from the following equation: Fi=(Fs-FDrug)/(FDMSO), where the fluorescent drug blank (FDrug) was measured in the drug mixture solution (using 0.2 M Tris HCl buffer, pH 8.3, without D-alanine). A DMSO blank (FDMSO) was measured under a 100% DMSO solution.
Although FAD is generally included in the reaction mixture in the D-amino acid oxidase assay since it easily dissociates from the holoenzyme, the present method was performed without FAD. The inhibitory effect of DAO inhibitors was compared by using inhibitory concentrations leading to 50% inhibition of DAAO activity (IC50). The IC50 values were calculated by nonlinear regression model using GraphPad Prism, version 5(GraphPad Software, Inc., La Jolla, Calif.).

The target in assay [1] is T2, DAO in SK-N-SH neuroblastoma cells (Homo sapiens, UniProt P14920).
T2 construct: endogenous in cells; host or cells: SK-N-SH neuroblastoma cells (ATCC)
The experiment in a line: Cell-based DAO assay in SK-N-SH cells. Also noted: key to Relative DAO activity normalize to DMSO at Final Conc. 100 uM / Relative DAO activity normalize to DMSO at Final Conc. 10 uM: fraction of DMSO-control DAO activity (1 = DMSO). The note with it: SK-N-SH 1.25*10^5 cells/well, drug treated for 3.5 hr; for IC50: 50 mM D-serine. The method, then: The SK-N-SH neuroblastoma cell line was purchased from American Type Culture Collection (ATCC). It was cultured in MEM media (Invitrogen/GIBCO, Rockville, Md.) supplemented with 10% fetal bovine serum, 1×NEAA (Invitrogen/GIBCO) at 37° C. with 5% CO2 in a humidified atmosphere. Cells were trypsinized and plated into a black 96-well plate (NUNC No. 237108) at a density of 125,000 cells/well in 50 μl before cell-based DAO assay.
The cellular DAO activity assay was using a method modified according to the report of Brandish et al. (Brandish, P. E., et al., A cell-based ultra-high-throughput screening assay for identifying inhibitors of D-amino acid oxidase. J Biomol Screen, 2006. 11(5): p. 481-7). SK-N-SH cells were suspended in assay buffers of HANKS buffer solution (Invitrogen/GIBCO No. 14025-092) with 20 mM HEPES. D-serine of (final concentration 50 mM) was added in each well as the substrate for DAO enzyme. The Amplex Red Hydrogen Peroxide/Proxidase Assay Kit (Molecular Probes/Invitrogen, cat. A22188) was used to measure H2O2 production which diffused across the cell membrane into the assay medium after DAO reaction. After seeding cells into black 96-well plate (Nunc No. 237108, Denmark), 50 μl of SK-N-SH cells (125,000 cells/well) was mixed with 50 μl drug solution (2.5 fold of interesting final concentration) and incubate at 37° C. with 5% CO2 in a humidified atmosphere for 30 minutes. After 30 minutes later, 25 μl of a 5 fold mixture containing D-serine, horseradish peroxidase (HRP), and Amplex Red was added into wells containing 100 μl of cell-drugs mixture and incubated at 37° C. with 5% CO2 in a humidified atmosphere for 3 hours. The final concentration of DMSO is below 1%. The fluorescence signal was then detected in SpectraMax M2e microplate reader (Molecular Devices, USA) with excitation at 544 nm and emission at 590 nm. The optimized assay buffer contained a final concentration of 50 mM D-serine, 0.625 units HRP, and 50 μM Amplex Red in a 125 μl assay volume.

T1 sequence (P00371 whole entry): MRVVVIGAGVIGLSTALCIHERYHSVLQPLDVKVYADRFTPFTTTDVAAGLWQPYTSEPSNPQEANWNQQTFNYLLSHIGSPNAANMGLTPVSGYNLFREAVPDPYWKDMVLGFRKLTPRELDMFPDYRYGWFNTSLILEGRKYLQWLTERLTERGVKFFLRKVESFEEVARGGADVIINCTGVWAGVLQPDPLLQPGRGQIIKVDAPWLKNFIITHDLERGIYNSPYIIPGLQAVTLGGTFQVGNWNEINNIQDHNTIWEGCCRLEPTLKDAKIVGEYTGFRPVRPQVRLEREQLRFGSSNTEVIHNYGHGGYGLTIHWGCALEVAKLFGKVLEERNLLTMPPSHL
T2 sequence (P14920 whole entry): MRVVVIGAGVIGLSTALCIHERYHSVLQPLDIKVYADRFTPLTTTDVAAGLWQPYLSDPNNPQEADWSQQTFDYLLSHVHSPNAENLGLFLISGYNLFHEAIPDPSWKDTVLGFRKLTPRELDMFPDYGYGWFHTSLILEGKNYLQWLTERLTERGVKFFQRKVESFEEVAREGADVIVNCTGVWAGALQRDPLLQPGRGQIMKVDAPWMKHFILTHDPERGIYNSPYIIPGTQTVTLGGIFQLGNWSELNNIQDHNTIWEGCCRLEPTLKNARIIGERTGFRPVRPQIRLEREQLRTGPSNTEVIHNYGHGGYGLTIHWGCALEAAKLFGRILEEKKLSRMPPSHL

A word on the IC50: it is the point on the concentration scale where inhibition reaches its midpoint. On porcine kidney DAO, `O=c1[nH]oc2ccc(Cl)cc12` [CBIO, reference compound] had an IC50 of 0.583 µM. For the same compound, in assay [1], the “Relative DAO activity normalize to DMSO at Final Conc. 10 uM” value is 1.00, the “Relative DAO activity normalize to DMSO at Final Conc. 100 uM” value is 0.83 and the IC50 worked out at 392 µM.

Consider `COc1ccc(C(=O)Oc2ccc3[nH]c([S+]([O-])Cc4ncc(C)c(OC)c4C)nc3c2)cc1` (centres unmarked) [compound 11020, 2-(((4-methoxy-3,5-dimethylpyridin-2-yl)methyl)sulfinyl)-1H-benzo[d]imidazol-5-yl 4-methoxybenzoate], for which, at porcine kidney DAO, the IC50 was 10.4 µM. Besides, in assay [1], the “Relative DAO activity normalize to DMSO at Final Conc. 10 uM” value worked out at 0.97, the “Relative DAO activity normalize to DMSO at Final Conc. 100 uM” value came to 0.67 and the IC50 is 221 µM.

In turn, `COc1c(C)cnc(C[S+]([O-])c2nc3cc(OC(=O)c4ccco4)ccc3[nH]2)c1C` (centres unmarked) [compound 12122, 2-(((4-methoxy-3,5-dimethylpyridin-2-yl)methyl)sulfinyl)-1H-benzo[d]imidazol-5-yl furan-2-carboxylate] registered an IC50 on porcine kidney DAO of 12.5 µM. Moreover, in assay [1], the “Relative DAO activity normalize to DMSO at Final Conc. 10 uM” value was determined as 0.98, the “Relative DAO activity normalize to DMSO at Final Conc. 100 uM” value was found to be 0.57 and half-maximal inhibition (IC50) was put at 147 µM.

At porcine kidney DAO, `C/C=C\C(=O)Oc1ccc2[nH]c([S+]([O-])Cc3ncc(C)c(OC)c3C)nc2c1` (centres unmarked) [compound 12124, 2-(((4-methoxy-3,5-dimethylpyridin-2-yl)methyl)sulfinyl)-1H-benzo[d]imidazol-5-yl (Z)-but-2-enoate] showed an IC50 of 11.2 µM. Also, in assay [1], the “Relative DAO activity normalize to DMSO at Final Conc. 10 uM” value was 0.97, the “Relative DAO activity normalize to DMSO at Final Conc. 100 uM” value amounted to 0.36 and the IC50 worked out at 108 µM.

On porcine kidney DAO, `COc1c(C)cnc(C[S+]([O-])c2nc3cc(OC(=O)C=C(C)C)ccc3[nH]2)c1C` (centres unmarked) [compound 12125, 2-(((4-methoxy-3,5-dimethylpyridin-2-yl)methyl)sulfinyl)-1H-benzo[d]imidazol-5-yl 3-methylbut-2-enoate] registered an IC50 of 13.3 µM. Also, in assay [1], the “Relative DAO activity normalize to DMSO at Final Conc. 10 uM” value is recorded as 0.80, the “Relative DAO activity normalize to DMSO at Final Conc. 100 uM” value is 0.50 and the IC50 was found to be 122 µM.

`COc1c(C)cnc(C[S+]([O-])c2nc3cc(OP(=O)(Oc4ccccc4)Oc4ccccc4)ccc3[nH]2)c1C` (centres unmarked) [compound 13084, 2-(((4-methoxy-3,5-dimethylpyridin-2-yl)methyl)sulfinyl)-1H-benzo[d]imidazol-5-yl diphenyl phosphate] yielded an IC50 on porcine kidney DAO of 181 µM. In assay [1], the “Relative DAO activity normalize to DMSO at Final Conc. 10 uM” value was found to be 0.71, the “Relative DAO activity normalize to DMSO at Final Conc. 100 uM” value worked out at 0.49 and the IC50 worked out at 34.9 µM.

Consider `COc1c(C)cnc(CN(Cc2ncc(C)c(OC)c2C)c2nc3cc(C(=O)O)ccc3n2CCC2=CCCCC2)c1C` [compound 21105, 2-(bis((4-methoxy-3,5-dimethylpyridin-2-yl)methyl)amino)-1-(2-(cyclohex-1-en-1-yl)ethyl)-1H-benzo[d]imidazole-5-carboxylic acid], for which the IC50 at porcine kidney DAO was 301 µM. Besides, in assay [1], the “Relative DAO activity normalize to DMSO at Final Conc. 10 uM” value is given as 0.89, the “Relative DAO activity normalize to DMSO at Final Conc. 100 uM” value is 0.58 and 219 µM corresponded to half-maximal inhibition (IC50).

Take `COC(=O)c1ccc2c(c1)N=C(NCc1ncc(C)c(OC)c1C)N(CCC1=CCCCC1)C2` [compound 21106, Methyl 3-(2-(cyclohex-1-en-1-yl)ethyl)-2-(((4-methoxy-3,5-dimethylpyridin-2-yl)methyl)amino)-3,4-dihydroquinazoline-7-carboxylate]: half-maximal inhibition against porcine kidney DAO (IC50) required 488 µM. In assay [1], the “Relative DAO activity normalize to DMSO at Final Conc. 10 uM” value is recorded as 1.02, the “Relative DAO activity normalize to DMSO at Final Conc. 100 uM” value was 0.77 and the IC50 came out at 478 µM.
